From patent publication US7708999B2, “Remedies for arthritis” (Kyowa Hakko Kirin Co., Ltd., priority 2001, dated 2010)

T1: compound 1 as a partial peptide of FGF-8 (Homo sapiens, UniProt P55075)
T1 construct: 17; made in house; host or cells: chemical synthesis
T1 sequence (P55075 with tags, fused parts or gaps isoform P55075-3 limits assumed): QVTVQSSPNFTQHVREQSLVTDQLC


Columns and labels:
[1] = system: rat adjuvant arthritis model; test: Rat adjuvant arthritis model; type: in vivo; conditions: for Bone destruction score / Bone destruction score (% inhibition): Table 2; for Bone destruction score: soft X-ray of calcaneus, adjuvant-untreated paw, day 21, maximum 5, mean ± standard error, oral comparators; for Bone destruction score (% inhibition) / inhibition of the increase in paw volume, adjuvant-untreated paw: vs solvent group; for inhibition of the increase in paw volume, adjuvant-untreated paw: day 21, oral, 1 mL per 100 g: sodium diclofenac 0.3 mg/mL, methotrexate 0.01 mg/mL, prednisolone 0.3 mg/mL; for inhibition of the increase (decrease) in amount of glycosaminoglycan in urine / inhibition of the increase (decrease) in amount of deoxypyridinoline in urine: urine day 20 to 21, oral comparators vs solvent group; for inhibition of the increase (decrease) in amount of glycosaminoglycan in urine: diclofenac and prednisolone not significant; for inhibition of the increase (decrease) in amount of deoxypyridinoline in urine: methotrexate and prednisolone not significant
Method: The rat adjuvant arthritis model was performed in the following manner according to the method of Pearson et al. (Pearson CM. et al., Arthritis Rheum., 5, 654-658, 1962) using Lewis rats (female, 8 weeks old, Japan Charles River).
Mycobacterium butyricum (manufactured by Difco) was suspended in a liquid paraffin (manufactured by Wako Pure Chemical Industries, Ltd.) to a final concentration of 6 mg/mL, and sterilized with a autoclave. The resulting solution was intradermally injected into the rat right hind pad in an amount of 100 μL for sensitization. One group consisted of 8 to 10 rats. Anti-FGF-8 neutralizing antibody KM1334 was dissolved in saline to a final concentration of 2 mg/mL. The solution was intraperitoneally administered to a KM1334 administrated group once a day at a dose of 0.5 mL per 100 g of the body weight for each rat on the sensitization day of the rat adjuvant arthritis model and on days 3, 7, 10, 14 and 17 from the sensitization. To saline administrated group, only saline was intraperitoneally administered instead of the anti-FGF-8 neutralizing antibody KM1334 solution. Further, sodium diclofenac, an antiinflammatory agent, was dissolved in a 0.5 w/v % methyl cellulose solution to a final concentration of 0.3 mg/mL, and the solution was orally administered to a sodium diclofenac administrated group as a positive control once a day at a dose of 1 mL per 100 g of the body weight on days 4, 7 to 11 and 14 to 18 from the adjuvant sensitization day. 50 mg of methotrexate® for injection (manufactured by Wyeth Japan) as a metabolic antagonist was dissolved in a 0.5 w/v % methyl cellulose solution to a final concentration of 0.01 mg/mL, and the solution was administered to a methotrexate administrated group in the same manner as in the sodium diclofenac administrated group. Prednisolone (manufactured by Sigma-Aldrich), a steroidal agent, was suspended in a 0.5 w/v % methyl cellulose solution to a final concentration of 0.3 mg/mL, and the suspension was administered to a prednisolone administrated group in the same manner as in the sodium diclofenac administrated group. Further, a 0.5 w/v % methyl cellulose solution alone was orally administered to a solvent administrated group in the same manner. An untreated group was used, and it was not subjected to sensitization with Mycobacterium butyricum and administration of an agent. The volumes of the adjuvant-treated paw and the adjuvant-untreated paw were measured as time goes by using a device for measuring edemas of rat hind paw (TK-101, manufactured by Unicom).
Using urine collected for 24 hours at day 20 and day 21 after the sensitization, the amounts of glycosaminoglycan, deoxypyridinoline, hydroxyproline and creatinine in urine were measured. The amount of glycosaminoglycan in urine was measured by the DMMB method described in Example 1. The amount of hydroxyproline in urine was measured by the method of Ikeda et al. (Ikeda Shingo et al., Tokyo Eiken Nenpo, 36 277-282, 1985). That is, 0.8 mL of hydrochloric acid for amino acid analysis (manufactured by Kanto Kagaku) was added to 0.8 mL of urine to hydrolyze at 110° C. for 15 hours. To 0.5 mL of the hydrolyzed sample was added 2 mL of a 1.2 mol/L sodium hydroxide solution for neutralization. 1 mL of isopropanol was added to 0.5 mL of the neutralized sample, and 1 ml of an oxidant solution was added. The mixture was stirred well, and allowed to stand at room temperature for 5 minutes. […]

[2] = target: T1, compound 1 as a partial peptide of FGF-8; test: FGF-8 binding activity by BIAcore 2000, immobilized biotin-labeled compound 1; conditions: antibody 16.7 μg/mL; FGF-8 peptide immobilized 35 RU
Method: In order to examine the FGF-8 binding activity of the anti-FGF-8 neutralizing CDR-grafted antibodies obtained in 5. of Reference Example 3, the FGF-8 binding activity of the various anti-FGF-8 neutralizing CDR-grafted antibodies was measured and compared through BIAcore 2000 using compound 1 as a partial peptide of FGF-8 with the C terminal labeled with biotin in the following manner. The anti-FGF-8 neutralizing chimeric antibody KM3034 derived from CHO/DG44 cells obtained in 3. (1) of Reference Example 1 was used as a positive control.
HBS-EP was used as a sample diluent and a buffer during measurement. First, Sensor Chip SA (manufactured by BIACORE) was installed, and 5 μL of compound 1 labeled with biotin which had been adjusted to 0.05 μg/mL was added at a flow rate of 5 μL/min. Then, 5 μL of a 10 mmol/L glycine-hydrochloride solution (pH 1.5) was added twice continuously to wash the tip surface. The immobilization amount of the FGF-8 peptide was 35 RU.
60 μL of each of the antibody solutions was added to an FGF-8 peptide immobilized flow cell at a flow rate of 20 μL/min, and the dissociation reaction was then monitored for 3 minutes. After the dissociation reaction, 20 μL of 10 mmol/L glycine-hydrochloride solution (pH 1.5) was added twice continuously to regenerate the chip surface. This cycle was performed on the antibody solution at various concentrations (from 50 to 1.85 μg/mL) to obtain sensor grams at various concentrations. The sensor grams of the respective antibodies were converted to sensor grams of specific reactions by deduceing a sensor gram obtained using the chimeric antibody KM871 to GD3 as a negative control.

Row | binding reaction [resonance signal (RU)] [2] | Molecule | Bone destruction score [1] | Bone destruction score (% inhibition) [1] [%] | inhibition of the increase in paw volume, adjuvant-untreated paw [1] [%] | inhibition of the increase (decrease) in amount of glycosaminoglycan in urine [1] [%] | inhibition of the increase (decrease) in amount of deoxypyridinoline in urine [1] [%]
1 | the lower binding reaction | HV0LV2-2/CHO: CHO/DG44 cell-derived anti-FGF-8 neutralizing CDR-grafted antibody, VH HV.0, VL LV.2-2 (SEQ ID NO. 47) (antibody, V domains shown) VH: QVQLVQSGAEVKKPGASVKVSCKASGYTFTDYYLNWVRQAPGQGLEWMGEIDPGSDSIYYNENLEGRVTITADTSTSTAYMELSSLRSEDTAVYYCARYGYSRYDVRFVYWGQGTLVTVSS VL: DVVMTQSPLSLPVTPGEPASISCRSSQSLVHSNGRTYLEWYLQKPGQSPQLLIYKVSNRISGVPDRFSGSGSGTDFTLKISRVEAEDVGVYFCFQGSHVPYTFGQGTKVEIK |  |  |  |  | 
2 | the highest binding reaction | KM3034: anti-FGF-8 neutralizing human chimeric antibody, VH SEQ ID NO. 5, VL SEQ ID NO. 6, human γ1/κ, CHO/DG44 cell-derived (FERM BP-7836) (antibody, listed as Mus musculus, V domains shown) VH: QVQLQQSGAEVARPGASVKLSCKASGYTFTDYYLNWVKQRSGQGLEWIGEIDPGSDSIYYNENLEGRATLTADKSSSTAYMQLNSLTSEDSAVYFCARYGYSRYDVRFVYWGQGTLVTVST VL: DVLMTQTPLSLPVSLGDQASISCRSSQSLVHSNGRTYLEWYLQKPGQSPKVLIYKVSNRISGVPDRFSGSGSGTDFTLKISRVEAEDLGVYFCFQGSHVPYTFGGGTKLEIK |  |  |  |  | 
3 | the lower binding reaction | HV0LV3-2/CHO: CHO/DG44 cell-derived anti-FGF-8 neutralizing CDR-grafted antibody, VH HV.0, VL LV.3-2 (SEQ ID NO. 45) (antibody, V domains shown) VH: QVQLVQSGAEVKKPGASVKVSCKASGYTFTDYYLNWVRQAPGQGLEWMGEIDPGSDSIYYNENLEGRVTITADTSTSTAYMELSSLRSEDTAVYYCARYGYSRYDVRFVYWGQGTLVTVSS VL: DIVMTQSPLSLPVSLGEPASISCRSSQSLVHSNGRTYLEWYLQKPGQSPQLLIYKVSNRISGVPDRFSGSGSGTDFTLKISRVEAEDVGVYFCFQGSHVPYTFGQGTKVEIK |  |  |  |  | 
4 | the highest binding reaction | HV0LV6/CHO: CHO/DG44 cell-derived anti-FGF-8 neutralizing CDR-grafted antibody, VH HV.0 (SEQ ID NO. 18), VL LV.6 (SEQ ID NO. 21) (antibody, V domains shown, HV.0, a designed amino acid sequence of VH of an anti-FGF-8 CDR-grafted neutralizing antibody; LV.6, a designed amino acid sequence of VL of an anti-FGF-8 CDR-grafted neutralizing antibody) VH: QVQLVQSGAEVKKPGASVKVSCKASGYTFTDYYLNWVRQAPGQGLEWMGEIDPGSDSIYYNENLEGRVTITADTSTSTAYMELSSLRSEDTAVYYCARYGYSRYDVRFVYWGQGTLVTVSS VL: DVVMTQSPLSLPVSLGEPASISCRSSQSLVHSNGRTYLEWYLQKPGQSPKVLIYKVSNRISGVPDRFSGSGSGTDFTLKISRVEAEDVGVYFCFQGSHVPYTFGQGTKVEIK |  |  |  |  | 

More lines, now with the values behind:

Row | Molecule | binding reaction [resonance signal (RU)] [2] | Bone destruction score [1] | Bone destruction score (% inhibition) [1] [%] | inhibition of the increase in paw volume, adjuvant-untreated paw [1] [%] | inhibition of the increase (decrease) in amount of glycosaminoglycan in urine [1] [%] | inhibition of the increase (decrease) in amount of deoxypyridinoline in urine [1] [%]
5 | CN(Cc1cnc2nc(N)nc(N)c2n1)c1ccc(C(=O)N[C@@H](CCC(=O)O)C(=O)O)cc1 [methotrexate] |  | 0.9 ± 0.4 | 80 | 90 | 79 | 34
6 | C[C@]12C=CC(=O)C=C1CC[C@@H]1[C@@H]2[C@@H](O)C[C@@]2(C)[C@H]1CC[C@]2(O)C(=O)CO [prednisolone, Prednisolone] |  | 1.8 ± 0.7 | 61 | 51 | 18 | 38
